Laboratory results taken from publication PMC12858405, “Ideal efficacy photoswitching for chromocontrol of TRPC4/5 channel functions in live tissues” (Nature Chemical Biology, 2026).

Legend:
[1] = system: mouse small intestine segments; experiment: Spontaneous motility of atropine-paralysed intestinal segments, video imaging with 365/447 nm
Text: Müller, Niemeyer, et al., Schaefer & Thorn-Seshold 2025: Ideal Efficacy Photoswitching of TRPC4/5 in Tissue 7 Spontaneous motility and isometric contractility (Fig. 6)
(§1) After sacrificing mice in accordance to the European (Council Directive 2010/63/EU) and German guidelines for the welfare of experimental animals, the abdomen was opened, and intestinal loops were mobilised. Ileal segments were obtained starting 10 mm from the ileocoecal junction. Ileal segments with a length of 3 mm for myography experiments or with a length of 8-12 mm for observation of spontaneous movement were cut out and flushed with carbogen-equilibrated KBRS.
The adventitial layer was carefully peeled off, using a pair of forceps. […]
Spontaneous motility: for macroscopic observation, ileal segments were placed in KBRS-filled 24-well plates, and treated with 300 nM atropine (which has long been known to override the inherent oscillatory bias of the gut nerve system to paralyse digestion) or its solvent. […] A time-lapse movie was recorded, and 365 nm or 447 nm LED were electronically switched to induce photoswitching. The recorded image stack was cut into substacks, covering a single well, each. The temporal variance of the shadow cast by the segments was calculated for consecutive 1 s bins and taken as a measure to obtain the temporal signature of the motility. […]

[2] = system: mouse ileal or jejuneal segments; experiment: Myographic isometric contractility of intestinal segments during photoswitching
Text: Basal tension was then restored under 447-nm light and 365/447-nm cycling could be repeated many times (Fig. 6e). […]
7 Spontaneous motility and isometric contractility (Fig. 6)
as §1
The adventitial layer was carefully peeled off, using a pair of forceps. The remaining intestinal segments, comprising mucosal, submucosal and muscular layers were placed in carbogen-saturated KBRS and immediately used for the experiments. Throughout these experiments, "wild-type" mice have the same genetic background as the knockout mice. For myography experiments, intestinal segments were prepared from mice at the age of 4-7 months. Wild-type control mice were matched in age to the respective knock-out animals.
Mice were housed in groups of two to three animals under the approved standard conditions including a 12 h light-dark-regime and access to food and water ad libitum (see above). Strains for testing intestinal contractility were C57BL6/N mice (from Charles River) and homozygous TRPC5 or TRPC4 single knockout mice,80 both back-crossed on the C57BL6/N background for at least five generations. All mice were of male sex. […]
Myographic isometric contractility: The contractile forces exerted by the circular layer of intestinal segments were quantitatively assessed by measurement in a 4-channel calibrated multi myograph device (DMT 620M, Danish Myo Technology, Hinnerup, Denmark), with digital data acquisition controlled by Labchart software (Version v8; ADINSTRUMENTS). Heated (37°C) bath chambers were filled with carbogen-equilibrated KBRS, and typically 3-mm ileal segments were manoeuvred over custom-made u-shaped hooks that prevented the mucosal layer from prolapsing on the edges. A pre-tension of typically 1.5-2 mN/mm was applied, and ileal segments were allowed […]
solvent (0.5% DMSO). After renewing the pre-tension, the recording of isometric contractions was started, while applying alternating illuminations typically at 365 nm and 447 nm, or else at 385 nm and 470 nm, (typically 10 s exposure each) over typically 9-11 cycles, with no additional illumination […]
segments (N/m) (Fig. 6d-h, Supplementary Fig. 23c-g).
7.1.1 First Saturate with Ligand, Then Dial the Wavelength
Even in the usually tricky situation that a targeted biological effect only occurs when a protein target is partially but not fully stimulated (here: physiology-like contractility as in Fig. 6e, with the overlay of the normal oscillatory frequncy), ideal efficacy switches are still perfectly capable of addressing them robustly. What is possible in the rare case that only fixed operating wavelengths may be available [e.g. in Fig. 6ef, if only 365 nm and 447 nm would be available], would be to use a sub-

[3] = system: TRPC5; settings: ag. = agonistic effect; read-out: EC50 [nM] simple agonism, TRPC5; cited from earlier work
[4] = system: Th+ neurons of Th-GCaMP6f-ΔTrpc5 mice; experiment: GCaMP6f Ca2+ imaging of Th+ neurons in arcuate nucleus brain slices with 355 nm photoswitching, Th-GCaMP6f-ΔTrpc5 (5ko) mice
Text: slices through the ARC of mice expressing the Ca2+ indicator GCaMP6f in Th+ neurons (Fig. 4),
we investigated (1) whether Ca2+ responses at endogenous TRPC5 expression levels can be
TRPC5 expression using TRPC5-deficient brain slices, (3) whether a dose dependence could be
detected, and (4) whether there are properties in channel activity that can be distinguished between
concentration-response measurements (Fig. 5d).

Cn1c(=O)n(CCCO)c(=O)c2c1nc(Oc1ccc(N=Nc3ccccc3)c(OC(F)(F)F)c1)n2Cc1ccc(Cl)cc1 [AzPico]
Response of atropine-paralysed small intestine segments to UV illumination ([1]; 10 nM, 300 nM atropine, stopped by 447 nm): initiated vigorous motions
Photoresponse of colon segments ([1]; treated colon segments): no photoresponse
Response of segments of TRPC4-deficient mice ([2]; 3 nM, 365/447 nm): never responded
Increase of oscillatory forces under 365 nm ([2]; 3 nM, wild-type segments): 1.9 ×
Time to recovery of oscillatory contractions under 447 nm ([2]; 30 nM, after 365 nm rictus-like state): 10 to 30 s
Effect of 365 nm at moderate to high concentration ([2]; 30 nM, 365 nm): rictus-like intestinal tensioning and rundown
Photoswitchability after medium replacement ([2]; 300 nM preincubated 2 h, then washed 2 h, 385/470 nm): remain perfectly photoreversibly operable
Effect of 385 nm at saturating concentration ([2]; 300 nM, 385 nm): only partial channel activation
Tonic and oscillatory force photoresponses in TRPC5-deficient mice vs matched control mice ([2]; 365/447 nm): indistinguishable

Cn1c(=O)n(CCCO)c(=O)c2c1nc(Oc1ccc(Cl)c(OC(F)(F)F)c1)n2Cc1ccc(Cl)cc1 [AM237, reference compound]
EC50 [3]: 20 nM

Cn1c(=O)n(CCCO)c(=O)c2c1nc(Oc1ccc(N=Nc3ccccc3)c(Cl)c1)n2Cc1ccc(Cl)cc1 [AzHC]
Ca2+ photoresponse in TRPC5-knockout slices ([4]; 500 nM, 355 nm pulse): did not respond
Change in spontaneous Ca2+ activity in TRPC5-deficient Th+ neurons vs before UV ([4]; 1 µM): no change
